Measured values reported in article PMC7778606, “Development of the phenylpyrazolo[3,4-d]pyrimidine-based, insulin-like growth factor receptor/Src/AXL-targeting small molecule kinase inhibitor” (Theranostics, 2021).

Experiments:
CDK11 = target: T1, CDK11 (Homo sapiens, UniProt Q9BWU1); experiment: KINOMEscan competition binding assay; conditions: LL6 at 10 μM; read-out: Percent Control
T1 construct: purchased DiscoverX KINOMEscan
Description: (§1) Kd values were obtained by KINOMEscan from DiscoverX (San Diego, CA, USA). To briefly summarize, Kd was measured by a competition binding assay that quantitatively measures the ability of a compound to compete with an immobilized ligand. […] Dose response curves of 11 points are obtained for Kd values, which are measured in duplicate. See more details in the cited references [39]-[42] and see also at www.discoverx.com.

CSNK1D = target: T2, CSNK1D (Homo sapiens, UniProt P48730); experiment: KINOMEscan competition binding assay; conditions: LL6 at 10 μM; read-out: Percent Control
T2 construct: purchased DiscoverX KINOMEscan
Description: as §1

ROCK2 = target: T3, ROCK2 (Homo sapiens, UniProt O75116); experiment: KINOMEscan competition binding assay; conditions: LL6 at 10 μM; read-out: Percent Control
T3 construct: purchased DiscoverX KINOMEscan
Description: as §1

FGFR2 = target: T4, FGFR2 (Homo sapiens, UniProt P21802); experiment: KINOMEscan competition binding assay; conditions: LL6 at 10 μM; read-out: Percent Control
T4 construct: purchased DiscoverX KINOMEscan
Description: as §1

CDK7 = target: T5, CDK7 (Homo sapiens, UniProt P50613); experiment: KINOMEscan competition binding assay; conditions: LL6 at 10 μM; read-out: Percent Control
T5 construct: purchased DiscoverX KINOMEscan
Description: as §1

CSNK1G2 = target: T6, CSNK1G2 (Homo sapiens, UniProt P78368); experiment: KINOMEscan competition binding assay; conditions: LL6 at 10 μM; read-out: Percent Control
T6 construct: purchased DiscoverX KINOMEscan
Description: as §1

SNARK = target: T7, SNARK (Homo sapiens, UniProt Q9H093); experiment: KINOMEscan competition binding assay; conditions: LL6 at 10 μM; read-out: Percent Control
T7 construct: purchased DiscoverX KINOMEscan
Description: as §1

PAK2 = target: T8, PAK2 (Homo sapiens, UniProt Q13177); experiment: KINOMEscan competition binding assay; conditions: LL6 at 10 μM; read-out: Percent Control
T8 construct: purchased DiscoverX KINOMEscan
Description: as §1

EPHA2 = target: T9, EPHA2 (Homo sapiens, UniProt P29317); experiment: KINOMEscan competition binding assay; conditions: LL6 at 10 μM; read-out: Percent Control
T9 construct: purchased DiscoverX KINOMEscan
Description: as §1

BMPR2 = target: T10, BMPR2 (Homo sapiens, UniProt Q13873); experiment: KINOMEscan competition binding assay; conditions: LL6 at 10 μM; read-out: Percent Control
T10 construct: purchased DiscoverX KINOMEscan
Description: as §1

IKK-beta = target: T11, IKK-beta (Homo sapiens, UniProt O14920); experiment: KINOMEscan competition binding assay; conditions: LL6 at 10 μM; read-out: Percent Control
T11 construct: purchased DiscoverX KINOMEscan
Description: as §1

KIT(D816V) = target: T12, KIT(D816V) (Homo sapiens, UniProt P10721, D816V); experiment: KINOMEscan competition binding assay; conditions: LL6 at 10 μM; read-out: Percent Control
T12 construct: purchased DiscoverX KINOMEscan
Description: as §1

MLK1 = target: T13, MLK1 (Homo sapiens, UniProt P80192); experiment: KINOMEscan competition binding assay; conditions: LL6 at 10 μM; read-out: Percent Control
T13 construct: purchased DiscoverX KINOMEscan
Description: as §1

KIT = target: T14, KIT (Homo sapiens, UniProt P10721); experiment: KINOMEscan competition binding assay
T14 construct: purchased DiscoverX (KINOMEscan service)
Description: as §1

PLK4 = target: T15, PLK4 (Homo sapiens, UniProt O00444); experiment: KINOMEscan competition binding assay; conditions: LL6 at 10 μM; read-out: Percent Control
T15 construct: purchased DiscoverX KINOMEscan
Description: as §1

PIM2 = target: T16, PIM2 (Homo sapiens, UniProt Q9P1W9); experiment: KINOMEscan competition binding assay; conditions: LL6 at 10 μM; read-out: Percent Control
T16 construct: purchased DiscoverX KINOMEscan
Description: as §1

RIOK2 = target: T17, RIOK2 (Homo sapiens, UniProt Q9BVS4); experiment: KINOMEscan competition binding assay; conditions: LL6 at 10 μM; read-out: Percent Control
T17 construct: purchased DiscoverX KINOMEscan
Description: as §1

CHEK1 = target: T18, CHEK1 (Homo sapiens, UniProt O14757); experiment: KINOMEscan competition binding assay; conditions: LL6 at 10 μM; read-out: Percent Control
T18 construct: purchased DiscoverX KINOMEscan
Description: as §1

ALK = target: T19, ALK (Homo sapiens, UniProt Q9UM73); experiment: KINOMEscan competition binding assay; conditions: LL6 at 10 μM; read-out: Percent Control
T19 construct: purchased DiscoverX KINOMEscan
Description: as §1

[1] = target: T20, JAK3(JH1domain-catalytic) (Homo sapiens, UniProt P52333); experiment: KINOMEscan competition binding assay; conditions: LL6 at 10 μM; read-out: Percent Control
T20 construct: JAK3(JH1domain-catalytic); purchased DiscoverX KINOMEscan
Description: as §1

RET = target: T21, RET (Homo sapiens, UniProt P07949); experiment: KINOMEscan competition binding assay; conditions: LL6 at 10 μM; read-out: Percent Control
T21 construct: purchased DiscoverX KINOMEscan
Description: as §1

TRKA = target: T22, TRKA (Homo sapiens, UniProt P04629); experiment: KINOMEscan competition binding assay; conditions: LL6 at 10 μM; read-out: Percent Control
T22 construct: purchased DiscoverX KINOMEscan
Description: as §1

VEGFR2 = target: T23, VEGFR2 (Homo sapiens, UniProt P35968); experiment: KINOMEscan competition binding assay; conditions: LL6 at 10 μM; read-out: Percent Control
T23 construct: purchased DiscoverX KINOMEscan
Description: as §1

TGFBR1 = target: T24, TGFBR1 (Homo sapiens, UniProt P36897); experiment: KINOMEscan competition binding assay; conditions: LL6 at 10 μM; read-out: Percent Control
T24 construct: purchased DiscoverX KINOMEscan
Description: as §1

IKK-alpha = target: T25, IKK-alpha (Homo sapiens, UniProt O15111); experiment: KINOMEscan competition binding assay; conditions: LL6 at 10 μM; read-out: Percent Control
T25 construct: purchased DiscoverX KINOMEscan
Description: as §1

MKNK1 = target: T26, MKNK1 (Homo sapiens, UniProt Q9BUB5); experiment: KINOMEscan competition binding assay; conditions: LL6 at 10 μM; read-out: Percent Control
T26 construct: purchased DiscoverX KINOMEscan
Description: as §1

EGFR(L858R) = target: T27, EGFR(L858R) (Homo sapiens, UniProt P00533, L858R); experiment: KINOMEscan competition binding assay; conditions: LL6 at 10 μM; read-out: Percent Control
T27 construct: purchased DiscoverX KINOMEscan
Description: as §1

MET = target: T28, MET (Homo sapiens, UniProt P08581); experiment: KINOMEscan competition binding assay; conditions: LL6 at 10 μM; read-out: Percent Control
T28 construct: purchased DiscoverX KINOMEscan
Description: as §1

[2] = target: T29, RSK2(Kin.Dom.1-N-terminal) (Homo sapiens, UniProt P51812); experiment: KINOMEscan competition binding assay; conditions: LL6 at 10 μM; read-out: Percent Control
T29 construct: RSK2(Kin.Dom.1-N-terminal); purchased DiscoverX KINOMEscan
Description: as §1

GSK3B = target: T30, GSK3B (Homo sapiens, UniProt P49841); experiment: KINOMEscan competition binding assay; conditions: LL6 at 10 μM; read-out: Percent Control
T30 construct: purchased DiscoverX KINOMEscan
Description: as §1

PIM1 = target: T31, PIM1 (Homo sapiens, UniProt P11309); experiment: KINOMEscan competition binding assay; conditions: LL6 at 10 μM; read-out: Percent Control
T31 construct: purchased DiscoverX KINOMEscan
Description: as §1

PLK1 = target: T32, PLK1 (Homo sapiens, UniProt P53350); experiment: KINOMEscan competition binding assay; conditions: LL6 at 10 μM; read-out: Percent Control
T32 construct: purchased DiscoverX KINOMEscan
Description: as §1

IGF-1R = experiment: Western blot, phosphorylation of IGF-1R in H1944 and A549 cells; assay type: cell-based, human; conditions: 2.5 μM
Description: Before harvesting, the cells were stimulated with 10% FBS for 20 min. Total cell lysates were prepared with modified radioimmunoprecipitation assay lysis buffer (50 mM Tris-HCl [pH 7.4], 150 mM NaCl, 1 mM EDTA, 0.25% sodium deoxycholate, 1% Triton X-100, 100 mM NaF, 5 mM Na3VO4, 1 mM PMSF, 1 μg/mL aprotinin, 1 μg/mL leupeptin, and 1 μg/mL pepstatin). Equal amounts of protein (20 μg) were subjected to 8% SDS-PAGE and electrically transferred onto polyvinylidene difluoride membranes (Bio-Rad Laboratories, Hercules, CA, USA). Membranes were blocked with blocking buffer (3% BSA in Tris-buffered saline containing 0.1% Tween-20 [TBST]) for 1 h at room temperature. The membranes were incubated with primary antibodies diluted in 3% BSA in TBST (1:1,000) overnight at 4 °C, washed multiple times with TBST, and incubated with secondary antibodies diluted in 3% nonfat dry milk in TBST (1:5,000) for 1 h at room temperature. The membranes were washed multiple times with TBST and visualized using an enhanced chemiluminescence detection kit (Thermo Fisher Scientific). Densitometric analysis was performed using ImageJ software.

`Nc1ncnc2c1c(-c1ccc(Cl)cc1)nn2CCn1cc(COc2ccc(Nc3nccc(Nc4cnc5ccccc5c4)n3)cc2)nn1` [LL6] was tested. Which remaining binding at 10 µM (CDK11) did it give?
The remaining binding at 10 µM was 13%.

What about the remaining binding at 10 µM (CSNK1D) of the same molecule?
The remaining binding at 10 µM was 14%.

And the remaining binding at 10 µM (ROCK2)?
Its remaining binding at 10 µM is 100%.

What about the remaining binding at 10 µM (FGFR2) of the same molecule?
The remaining binding at 10 µM was 62%.

What about the remaining binding at 10 µM (CDK7) of the same molecule?
The remaining binding at 10 µM was 56%.

And the remaining binding at 10 µM (CSNK1G2)?
The remaining binding at 10 µM was 63%.

And the remaining binding at 10 µM (SNARK)?
Its remaining binding at 10 µM is 100%.

And the remaining binding at 10 µM (PAK2)?
Its remaining binding at 10 µM is 100%.

What about the remaining binding at 10 µM (EPHA2) of the same molecule?
The remaining binding at 10 µM was 100%.

And the remaining binding at 10 µM (BMPR2)?
Its remaining binding at 10 µM is 40%.

What about the remaining binding at 10 µM (IKK-beta) of the same molecule?
Its remaining binding at 10 µM is 100%.

What about the remaining binding at 10 µM (KIT(D816V)) of the same molecule?
The remaining binding at 10 µM was 66%.

What about the remaining binding at 10 µM (MLK1) of the same molecule?
The remaining binding at 10 µM was 75%.

And the Kd (KIT; KIT, 11-point dose response, duplicate)?
Its Kd is “did not show dose-dependent inhibition curves”.

And the inhibition at 10 µM (KIT; KIT, LL6 at 10 µM)?
The inhibition at 10 µM was greater than 65%.

And the remaining binding at 10 µM (KIT; LL6 at 10 μM, read-out: Percent Control)?
The remaining binding at 10 µM was 1.8%.

What about the remaining binding at 10 µM (PLK4) of the same molecule?
The remaining binding at 10 µM was 66%.

And the remaining binding at 10 µM (PIM2)?
Its remaining binding at 10 µM is 100%.

And the remaining binding at 10 µM (RIOK2)?
The remaining binding at 10 µM was 100%.

What about the remaining binding at 10 µM (CHEK1) of the same molecule?
The remaining binding at 10 µM was 100%.

And the remaining binding at 10 µM (ALK)?
Its remaining binding at 10 µM is 100%.

And the remaining binding at 10 µM [1]?
The remaining binding at 10 µM was 100%.

And the remaining binding at 10 µM (RET)?
Its remaining binding at 10 µM is 81%.

What about the remaining binding at 10 µM (TRKA) of the same molecule?
The remaining binding at 10 µM was 100%.

And the remaining binding at 10 µM (VEGFR2)?
Its remaining binding at 10 µM is 65%.

And the remaining binding at 10 µM (TGFBR1)?
The remaining binding at 10 µM was 46%.

And the remaining binding at 10 µM (IKK-alpha)?
Its remaining binding at 10 µM is 100%.

And the remaining binding at 10 µM (MKNK1)?
The remaining binding at 10 µM was 100%.

And the remaining binding at 10 µM (EGFR(L858R))?
The remaining binding at 10 µM was 88%.

And the remaining binding at 10 µM (MET)?
The remaining binding at 10 µM was 75%.

What about the remaining binding at 10 µM [2] of the same molecule?
Its remaining binding at 10 µM is 25%.

What about the remaining binding at 10 µM (GSK3B) of the same molecule?
Its remaining binding at 10 µM is 67%.

And the remaining binding at 10 µM (PIM1)?
The remaining binding at 10 µM was 98%.

What about the remaining binding at 10 µM (PLK1) of the same molecule?
The remaining binding at 10 µM was 100%.

What about the “activation (phosphorylation) of IGF-1R” value (IGF-1R) of the same molecule?
Its value is “efficiently suppressed”.
